Tests used:
[1] = target: T1, 5HT2B site (Homo sapiens, UniProt P41595); test: CEREP selectivity screen, binding assay; conditions: read-out: highest inhibition, 5HT2B site
T1 construct: Cerep (CRO)
Procedure: The CEREP selectivity screen was performed on the following targets:
A1, A2A, A3, α1, α2, β1, β2, AT1, AT2, BZD central, BZD periph, BB, B2, CGRP, CB1, CCK1, CCK2, D1, D2S, D3, D4.4, D5, ETA, ETB, GABA, GAL1, GAL2, PDGF, CXCR2, CCR1, TNF- α, H1, H2, MC4, MT1, M1, M2, M3, M4, M5, NK1, NK2, NK3,Y1, Y2, NTS1(NT1), δ2, κ, µ, NOP(ORL1) , PAC1(PACAP), PPARγ, PCP, EP2, EP4, IP(PGI2,), P2X, P2Y,5-HT1A, 5-HT1B, 5-HT2A, 5-HT2B, 5-HT2C, 5-HT3, 5-HT5A, 5-HT6, 5-HT7, σ, sst, GR, ER, VPAC1(VIP1), V1a, Ca^2+ channel (L), KV channel, KV channel, SKCa channel, Na^+ channel, Cl^- channel, norepinephrine transporter. dopamine transporter, 5-HT transporter.

[2] = tested on: CHO-K1 cells; test: In vitro micronucleus test; type: cell-based; conditions: presence and absence of S9
Text: Fluorescent imaging was used to obtain the results in the micronucleus test.

[3] = Solubility in water; type: physicochemical; conditions: as the sodium salt in water at 35 °C

T1 sequence (P41595 whole entry): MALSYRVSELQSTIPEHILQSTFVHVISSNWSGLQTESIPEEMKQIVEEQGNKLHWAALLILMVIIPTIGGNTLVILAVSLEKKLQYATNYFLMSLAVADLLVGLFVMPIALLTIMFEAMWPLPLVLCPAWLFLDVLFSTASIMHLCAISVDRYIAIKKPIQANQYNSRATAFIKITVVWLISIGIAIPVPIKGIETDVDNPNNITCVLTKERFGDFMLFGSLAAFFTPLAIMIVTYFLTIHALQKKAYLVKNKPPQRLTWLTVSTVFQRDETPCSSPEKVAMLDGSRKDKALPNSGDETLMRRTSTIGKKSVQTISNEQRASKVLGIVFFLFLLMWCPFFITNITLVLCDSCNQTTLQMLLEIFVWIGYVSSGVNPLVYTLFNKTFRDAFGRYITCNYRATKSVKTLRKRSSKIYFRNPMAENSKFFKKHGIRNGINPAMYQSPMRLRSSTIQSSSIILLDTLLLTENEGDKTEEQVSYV

**Q.** Which results are given for CCOc1c(Cl)cc(C(=O)Nc2ccc(C(=O)O)c(C)c2)cc1OC(C)C [Compound 56, 4-(3-Chloro-4-ethoxy-5-isopropoxybenzamido)-2-methylbenzoic acid]?
**A.** inhibition at 10 µM [1]: 25%; in vitro micronucleus test [2]: negative; solubility [3]: > 5000 µg/mL
